Source: ChEMBL document CHEMBL1201862, “PubChem BioAssay data set” (2004)
Active and inactive are the calls of the source.

Legend:
HeLa = test: ATP-based viability loss in HeLa cells – cell-based, CellTiter-Glo luminescence, cherry-pick samples, cytotoxicity control for MITF activator project, dose response (AID 540259); type: functional; conditions: Homo sapiens
[1] = target: T1, Corticotropin-releasing factor receptor 2/Corticotropin-releasing factor-binding protein (Homo sapiens, UniProt P24387+Q13324); test: Dose Response confirmation of uHTS hits for small molecule antagonists of the CRF-binding protein and CRF-R2 receptor complex.; type: functional; conditions: read-out: IC50_Mean
T1 sequence (Q13324 whole entry): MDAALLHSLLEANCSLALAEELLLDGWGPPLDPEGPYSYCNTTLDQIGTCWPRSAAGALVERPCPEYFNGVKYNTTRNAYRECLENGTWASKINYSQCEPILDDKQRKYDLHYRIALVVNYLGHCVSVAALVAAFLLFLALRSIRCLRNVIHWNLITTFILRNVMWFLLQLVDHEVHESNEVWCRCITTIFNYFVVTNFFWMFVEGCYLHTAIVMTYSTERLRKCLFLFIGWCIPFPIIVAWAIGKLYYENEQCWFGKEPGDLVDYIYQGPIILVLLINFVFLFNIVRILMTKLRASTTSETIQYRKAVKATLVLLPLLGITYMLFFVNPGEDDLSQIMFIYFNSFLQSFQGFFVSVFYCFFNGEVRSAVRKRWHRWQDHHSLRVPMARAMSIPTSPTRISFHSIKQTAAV
T1 sequence (P24387 whole entry): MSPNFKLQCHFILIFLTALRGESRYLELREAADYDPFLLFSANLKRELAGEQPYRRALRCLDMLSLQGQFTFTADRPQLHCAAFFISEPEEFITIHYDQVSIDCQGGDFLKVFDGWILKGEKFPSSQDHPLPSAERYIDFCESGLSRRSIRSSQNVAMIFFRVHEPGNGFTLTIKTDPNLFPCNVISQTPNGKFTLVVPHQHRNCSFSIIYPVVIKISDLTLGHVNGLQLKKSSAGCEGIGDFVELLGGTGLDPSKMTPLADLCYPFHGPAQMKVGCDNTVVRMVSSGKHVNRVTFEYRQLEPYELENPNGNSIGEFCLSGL

[2] = target: T1, Corticotropin-releasing factor receptor 2/Corticotropin-releasing factor-binding protein; test: activators of CRF receptor 2 with binding protein – uHTS hits, confirmation (AID 602473); type: functional; conditions: read-out: EC50_Mean
[3] = NIH-3T3 fibroblast cytotoxicity, dose response, cytotoxicity control, cell-based, fluorescence, Alamar Blue, secondary assay (AID 2327); type: functional;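 note: NIH-3T3 mouse fibroblasts cultured with fluconazole at 8 µg/mL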
[4] = fluconazole-exposed Candida albicans growth modulators – fluorescence, retest, confirmation (AID 2467); type: functional, cell-based
Jurkat [5] = test: blockers of NF-kB activation in T cells – Jurkat, luciferase reporter, luminescence, B- and T-cell, dose response (AID 489004); type: functional, cell-based; conditions: Homo sapiens;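 note: NF-kB luciferase reporter Jurkat cells stimulated with PMA plus ionomycin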
[6] = HEK-293T viability loss, compound-treated – cell-based, uHTS hits, cytotoxicity control for B/T-cell NF-kB inhibitor project, dose response (AID 489019); type: functional;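 note: IC50 reflects cytotoxicity as loss of cell viability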
[7] = target: T2, Microphthalmia-associated transcription factor (Homo sapiens, UniProt O75030); test: reducers of TRPM1 reporter luminescence, concentration series – cell-based, SK-MEL-5, cherry-picked, set 3, MITF inhibitor project, dose response (AID 493073); type: functional;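 note: SK-MEL-5 melanoma cells with luciferase driven by the MITF target TRPM1 promoter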
T2 sequence (O75030 whole entry): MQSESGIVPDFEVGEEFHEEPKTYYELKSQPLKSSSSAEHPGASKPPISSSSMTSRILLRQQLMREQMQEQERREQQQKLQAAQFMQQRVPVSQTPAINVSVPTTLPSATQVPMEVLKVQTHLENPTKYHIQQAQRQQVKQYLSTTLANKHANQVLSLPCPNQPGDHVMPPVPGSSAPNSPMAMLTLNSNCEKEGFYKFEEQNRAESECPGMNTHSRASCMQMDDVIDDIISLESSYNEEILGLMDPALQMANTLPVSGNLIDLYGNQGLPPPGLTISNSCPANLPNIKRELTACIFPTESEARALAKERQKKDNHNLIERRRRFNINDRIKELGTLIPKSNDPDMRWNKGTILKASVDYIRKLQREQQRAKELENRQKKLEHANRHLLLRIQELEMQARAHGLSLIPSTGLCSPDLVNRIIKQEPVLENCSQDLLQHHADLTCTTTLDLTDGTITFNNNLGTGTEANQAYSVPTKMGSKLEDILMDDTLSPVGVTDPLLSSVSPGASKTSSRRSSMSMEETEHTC

A-375 = test: MITF: Counter assay: A375 proliferation Measured in Cell-Based System Using Plate Reader - 2084-03_Inhibitor_Dose_DryPowder_Activity. [Related pubchem assays (depositor defined):AID488944]; type: functional; conditions: Homo sapiens
INS1 = test: INS-1E survival protection against cytokine death – cell-based, luminescence, retest, dose response (AID 449756); type: functional; conditions: Rattus norvegicus;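 note: cell death triggered by IL-1 beta plus TNF-alpha plus IFN-gamma mixture; protective hits raise ATP signal compared with cytokine alone wells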
[8] = target: DNA dC->dU-editing enzyme APOBEC-3A (Homo sapiens, UniProt P31941); test: Dose Response confirmation of small molecule APOBEC3A DNA Deaminase Inhibitors via a fluorescence-based single-stranded DNA deaminase assay. [Related pubchem assays (depositor defined):AID493011, AID493024]; type: functional
ORF 73 = target: T3, ORF 73 (Human herpesvirus 8, UniProt O40947); test: KSHV LANA DNA-binding disruption – biochemical, fluorescence polarization, cherry-picked samples, dose response (AID 504725); design: species or system Human gammaherpesvirus 8;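 note: fluorescence polarization of a labeled DNA duplex reporting LANA DNA binding; potency is for inhibitors that block LANA binding to the DNA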
T3 sequence (O40947 whole entry): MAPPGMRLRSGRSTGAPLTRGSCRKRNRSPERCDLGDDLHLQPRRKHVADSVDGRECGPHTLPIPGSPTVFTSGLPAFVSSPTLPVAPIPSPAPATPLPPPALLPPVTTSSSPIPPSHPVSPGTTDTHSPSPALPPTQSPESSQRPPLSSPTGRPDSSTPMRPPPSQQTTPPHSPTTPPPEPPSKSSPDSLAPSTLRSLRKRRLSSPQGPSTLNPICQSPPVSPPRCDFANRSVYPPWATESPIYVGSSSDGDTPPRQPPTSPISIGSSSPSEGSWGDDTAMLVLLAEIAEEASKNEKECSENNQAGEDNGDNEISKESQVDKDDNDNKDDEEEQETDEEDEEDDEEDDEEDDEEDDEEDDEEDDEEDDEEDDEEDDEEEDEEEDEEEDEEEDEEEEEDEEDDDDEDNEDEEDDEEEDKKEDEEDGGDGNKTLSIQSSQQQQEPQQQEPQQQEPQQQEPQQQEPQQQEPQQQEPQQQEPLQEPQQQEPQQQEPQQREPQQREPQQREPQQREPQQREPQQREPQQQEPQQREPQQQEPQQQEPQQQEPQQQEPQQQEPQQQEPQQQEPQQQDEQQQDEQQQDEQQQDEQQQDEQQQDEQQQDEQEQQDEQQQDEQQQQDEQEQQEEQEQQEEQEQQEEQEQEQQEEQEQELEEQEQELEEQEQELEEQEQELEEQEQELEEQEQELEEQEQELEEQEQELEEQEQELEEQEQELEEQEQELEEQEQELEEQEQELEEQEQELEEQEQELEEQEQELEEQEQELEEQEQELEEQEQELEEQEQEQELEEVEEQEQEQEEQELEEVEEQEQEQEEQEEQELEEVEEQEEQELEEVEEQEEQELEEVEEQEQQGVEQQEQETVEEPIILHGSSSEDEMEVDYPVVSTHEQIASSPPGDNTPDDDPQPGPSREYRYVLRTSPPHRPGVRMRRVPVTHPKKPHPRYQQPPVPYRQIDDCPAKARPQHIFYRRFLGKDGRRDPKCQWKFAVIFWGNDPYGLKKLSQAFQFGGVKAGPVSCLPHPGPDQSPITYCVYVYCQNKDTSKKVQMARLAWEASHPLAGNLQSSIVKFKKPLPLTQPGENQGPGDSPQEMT

[9] = target: DNA dC->dU-editing enzyme APOBEC-3G (Homo sapiens, UniProt Q9HC16); type: functional;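 note: Dose-response counterscreen measuring inhibition of APOBEC3G DNA deaminase activity, run while confirming APOBEC3A inhibitors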
Sequence of DNA dC->dU-editing enzyme APOBEC-3G (Q9HC16 whole entry): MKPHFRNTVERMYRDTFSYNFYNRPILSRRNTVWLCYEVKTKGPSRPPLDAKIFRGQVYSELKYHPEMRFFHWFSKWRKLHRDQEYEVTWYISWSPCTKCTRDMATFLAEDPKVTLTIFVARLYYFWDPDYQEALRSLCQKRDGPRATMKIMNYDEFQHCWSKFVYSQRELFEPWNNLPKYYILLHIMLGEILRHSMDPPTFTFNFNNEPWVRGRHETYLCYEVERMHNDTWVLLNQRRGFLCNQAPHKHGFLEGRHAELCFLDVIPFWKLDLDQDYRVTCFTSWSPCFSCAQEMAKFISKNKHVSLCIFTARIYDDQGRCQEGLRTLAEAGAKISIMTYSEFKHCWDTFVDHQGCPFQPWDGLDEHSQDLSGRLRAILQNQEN

[10] = target: UDP-galactopyranose mutase (Mycobacterium tuberculosis, UniProt P9WIQ1); test: Inhibitors of Mycobacterium tuberculosis UDP-galactopyranose mutase (UGM) enzyme Measured in Biochemical System Using Plate Reader - 2105-02_Inhibitor_Dose_CherryPick_Activity. [Related pubchem assays (depositor defined):AID504439]
Keap1/Nrf2 = Keap1/Nrf2 (Homo sapiens, UniProt Q14145); test: disruptors of Keap1 binding to Nrf2 peptide – biochemical, fluorescence polarization, cherry-picked samples, dose response (AID 588683)
Sequence of Keap1/Nrf2 (Q16236 whole entry): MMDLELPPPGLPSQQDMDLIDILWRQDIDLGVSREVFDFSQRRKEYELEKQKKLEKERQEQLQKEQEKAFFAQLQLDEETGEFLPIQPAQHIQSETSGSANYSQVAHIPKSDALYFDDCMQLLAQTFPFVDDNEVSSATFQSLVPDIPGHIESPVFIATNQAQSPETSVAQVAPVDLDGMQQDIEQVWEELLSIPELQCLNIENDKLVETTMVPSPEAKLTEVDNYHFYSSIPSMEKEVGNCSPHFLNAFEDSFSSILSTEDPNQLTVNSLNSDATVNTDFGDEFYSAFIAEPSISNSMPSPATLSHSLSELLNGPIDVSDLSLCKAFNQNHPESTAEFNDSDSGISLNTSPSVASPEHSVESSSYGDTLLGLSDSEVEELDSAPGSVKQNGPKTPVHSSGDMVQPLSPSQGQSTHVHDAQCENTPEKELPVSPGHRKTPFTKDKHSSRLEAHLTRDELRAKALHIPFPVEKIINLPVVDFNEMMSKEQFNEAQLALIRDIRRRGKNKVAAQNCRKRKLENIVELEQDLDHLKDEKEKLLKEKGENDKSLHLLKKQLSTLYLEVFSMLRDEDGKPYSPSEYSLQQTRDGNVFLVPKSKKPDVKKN
Sequence of Keap1/Nrf2 (Q14145 whole entry): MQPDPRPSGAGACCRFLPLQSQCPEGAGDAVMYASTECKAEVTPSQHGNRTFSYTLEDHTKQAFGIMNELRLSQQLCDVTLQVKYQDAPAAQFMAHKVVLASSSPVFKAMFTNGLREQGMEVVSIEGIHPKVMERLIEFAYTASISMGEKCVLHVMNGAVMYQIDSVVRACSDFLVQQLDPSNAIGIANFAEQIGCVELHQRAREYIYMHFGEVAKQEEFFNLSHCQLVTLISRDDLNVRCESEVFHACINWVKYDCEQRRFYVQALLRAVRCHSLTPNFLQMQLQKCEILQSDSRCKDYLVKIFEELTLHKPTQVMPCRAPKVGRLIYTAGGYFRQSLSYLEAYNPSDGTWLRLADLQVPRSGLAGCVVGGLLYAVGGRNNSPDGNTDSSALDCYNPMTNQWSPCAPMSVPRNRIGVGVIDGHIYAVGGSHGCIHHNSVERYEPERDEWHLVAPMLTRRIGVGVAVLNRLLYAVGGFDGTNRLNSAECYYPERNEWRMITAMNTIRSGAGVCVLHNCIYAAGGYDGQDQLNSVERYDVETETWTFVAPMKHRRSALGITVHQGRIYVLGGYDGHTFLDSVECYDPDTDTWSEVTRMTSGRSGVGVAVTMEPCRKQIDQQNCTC

[11] = target: Induced myeloid leukemia cell differentiation protein Mcl-1 (Homo sapiens, UniProt Q07820); type: functional
Sequence of Induced myeloid leukemia cell differentiation protein Mcl-1 (Q07820 whole entry): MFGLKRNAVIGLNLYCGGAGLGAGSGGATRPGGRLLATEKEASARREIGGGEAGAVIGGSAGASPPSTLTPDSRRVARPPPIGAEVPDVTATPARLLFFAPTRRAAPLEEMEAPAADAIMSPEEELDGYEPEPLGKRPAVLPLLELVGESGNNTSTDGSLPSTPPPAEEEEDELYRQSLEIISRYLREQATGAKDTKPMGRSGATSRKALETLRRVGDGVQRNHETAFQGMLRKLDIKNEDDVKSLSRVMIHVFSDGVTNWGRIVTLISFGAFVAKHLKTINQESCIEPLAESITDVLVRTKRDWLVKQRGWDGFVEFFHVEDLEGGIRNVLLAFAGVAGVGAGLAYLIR

[12] = target: FAD-linked sulfhydryl oxidase ALR (Homo sapiens, UniProt P55789); test: ALR-catalysed DTT oxidation blockers – biochemical, H2O2 detection, luminescence, cherry-pick, dose response (AID 493248)
Sequence of FAD-linked sulfhydryl oxidase ALR (P55789 whole entry): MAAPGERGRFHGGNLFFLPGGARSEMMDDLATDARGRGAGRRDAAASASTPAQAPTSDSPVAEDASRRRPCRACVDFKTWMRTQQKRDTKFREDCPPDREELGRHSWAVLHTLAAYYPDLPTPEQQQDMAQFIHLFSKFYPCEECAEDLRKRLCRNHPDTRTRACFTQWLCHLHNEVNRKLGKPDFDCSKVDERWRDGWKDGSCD

[13] = target: Dual specificity tyrosine-phosphorylation-regulated kinase 1A (Rattus norvegicus, UniProt Q63470); type: biochemical, Homo sapiens
[14] = target: Histone-lysine N-methyltransferase NSD2 (Homo sapiens, UniProt O96028); type: biochemical
Sequence of Histone-lysine N-methyltransferase NSD2 (O96028 whole entry): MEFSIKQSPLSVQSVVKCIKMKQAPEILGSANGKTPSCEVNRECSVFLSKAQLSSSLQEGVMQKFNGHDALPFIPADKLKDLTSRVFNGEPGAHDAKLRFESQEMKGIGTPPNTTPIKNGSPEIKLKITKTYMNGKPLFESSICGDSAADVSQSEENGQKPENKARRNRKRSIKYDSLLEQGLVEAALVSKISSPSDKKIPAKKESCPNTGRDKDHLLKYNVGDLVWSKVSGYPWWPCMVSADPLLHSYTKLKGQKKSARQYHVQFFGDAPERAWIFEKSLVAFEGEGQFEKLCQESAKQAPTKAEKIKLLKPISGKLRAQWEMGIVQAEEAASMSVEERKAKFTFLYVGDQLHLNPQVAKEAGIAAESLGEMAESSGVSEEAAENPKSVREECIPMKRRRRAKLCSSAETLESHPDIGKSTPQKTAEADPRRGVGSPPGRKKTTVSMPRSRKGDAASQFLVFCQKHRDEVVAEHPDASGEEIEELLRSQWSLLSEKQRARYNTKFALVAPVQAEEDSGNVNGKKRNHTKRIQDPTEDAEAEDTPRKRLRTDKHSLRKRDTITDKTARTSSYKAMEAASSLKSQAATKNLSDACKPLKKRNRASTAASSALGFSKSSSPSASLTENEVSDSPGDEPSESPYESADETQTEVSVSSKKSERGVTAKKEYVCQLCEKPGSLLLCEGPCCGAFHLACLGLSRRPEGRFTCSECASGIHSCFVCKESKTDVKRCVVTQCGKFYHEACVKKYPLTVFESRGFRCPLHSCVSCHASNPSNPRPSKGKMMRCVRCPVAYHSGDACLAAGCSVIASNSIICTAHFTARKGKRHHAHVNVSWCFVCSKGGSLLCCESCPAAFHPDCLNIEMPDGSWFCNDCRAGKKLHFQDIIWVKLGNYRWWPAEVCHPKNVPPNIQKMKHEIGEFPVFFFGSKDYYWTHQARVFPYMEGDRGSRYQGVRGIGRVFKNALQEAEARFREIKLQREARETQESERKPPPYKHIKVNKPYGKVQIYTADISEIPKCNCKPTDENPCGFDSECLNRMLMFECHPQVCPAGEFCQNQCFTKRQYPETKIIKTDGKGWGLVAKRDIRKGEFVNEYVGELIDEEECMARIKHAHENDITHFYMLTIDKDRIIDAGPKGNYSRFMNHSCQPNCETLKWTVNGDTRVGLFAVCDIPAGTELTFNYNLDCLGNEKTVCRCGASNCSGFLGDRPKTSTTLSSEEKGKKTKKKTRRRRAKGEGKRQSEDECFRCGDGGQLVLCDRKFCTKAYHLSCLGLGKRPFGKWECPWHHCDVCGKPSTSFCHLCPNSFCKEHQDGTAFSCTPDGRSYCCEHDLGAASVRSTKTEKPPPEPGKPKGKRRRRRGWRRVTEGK

HEK293 [15] = test: PMA/Ionomycin induced NF-kB luciferase assay in 293- NF-kB-Luc stable cells. [Related pubchem assays: 1299, 1270, 1295, 1375, 1287, 1281, 1293, 1291, 1289, 1280, 465, 1364, 1282, 1372, 1365, 1370, 1367, 1366, 1269, 1373, 1292, 1290, 1302, 1371, 1283, 1271, 1294, 1374, 1368, 1369 ]; type: functional, cell-based; conditions: Homo sapiens
[16] = target: Luciferin 4-monooxygenase (Photinus pyralis, UniProt P08659); test: In vitro luciferase assay using purified luciferase. [Related pubchem assays: 1299, 1270, 1295, 1375, 1287, 1281, 1293, 1291, 1289, 1280, 465, 1364, 1282, 1372, 1365, 1370, 1367, 1366, 1266, 1373, 1292, 1290, 1302, 1371, 1283, 1271, 1294, 1374, 1368, 1369 ]
HEK293 [17] = test: Cytotoxicity assay in HEK293 cells. [Related pubchem assays (depositor defined):AID1266, AID1269, AID1270, AID1271, AID1280, AID1281, AID1282, AID1283, AID1287, AID1289, AID1290, AID1291, AID1292, AID1293, AID1294, AID1295, AID1299, AID1302, AID1364, AID1365, AID1366, AID1367, AID1369, AID1370, AID1371, AID1372, AID1373, AID1374, AID1375, AID1384 …; type: functional, cell-based; conditions: Homo sapiens
[18] = HEK-293T cell viability reduction – luminescence, B-cell screen hits, cytotoxicity control for BCR NF-kB inhibitor project, dose response (AID 489021); type: functional, cell-based;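 note: HEK-293T cells carrying an NF-kB luciferase reporter; cells exposed to compound for about 14 hours before viability readout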
HEK293 [19] = test: EBV LMP1 TES2 canonical NF-kB signalling blockers – cell-based, HEK293, luciferase, cherry-pick, dose response (AID 588343); type: functional; conditions: Homo sapiens
HEK293 [20] = test: HEK293T cell viability loss, resazurin readout – resazurin fluorescence, cytotoxicity control for NF-kB activator project, SAR follow-up (AID 493251); type: functional, cell-based
Jurkat [21] = test: SAR Analysis of small molecule inhibitors of T-cell specific antigen receptor-induced NF-kB activation in a Jurkat cell line using a luminescence assay - Set 2. [Related pubchem assays (depositor defined):AID435003, AID435012, AID465]; type: functional, cell-based; conditions: Homo sapiens
HEK293 [22] = test: SAR Analysis of small molecule inhibitors of T-cell specific antigen receptor-induced NF-kB activation in a HEK-293T cell line using a luminescence assay - Set 2. [Related pubchem assays (depositor defined):AID435003, AID435012, AID489026]; type: functional, cell-based; conditions: Homo sapiens
[23] = target: Serine/threonine-protein phosphatase (Candida dubliniensis (strain CD36 / CBS 7987 / NCPF 3949 / NRRLY-17841) (Yeast), UniProt B9W6M3); test: blockers of CaCl2-induced CDRE-lacZ signaling – S. cerevisiae, luminescence, secondary, dose response (AID 2388); type: functional, cell-based;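 note: yeast reporter cells carrying a calcineurin-responsive lacZ construct stimulated with calcium chloride; luminescent beta-galactosidase reporter signal in whole cells rather than isolated phosphatase activity; potency for inhibition where a drop in reporter signal means calcineurin blockade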
Sequence of Serine/threonine-protein phosphatase (B9W6M3 whole entry): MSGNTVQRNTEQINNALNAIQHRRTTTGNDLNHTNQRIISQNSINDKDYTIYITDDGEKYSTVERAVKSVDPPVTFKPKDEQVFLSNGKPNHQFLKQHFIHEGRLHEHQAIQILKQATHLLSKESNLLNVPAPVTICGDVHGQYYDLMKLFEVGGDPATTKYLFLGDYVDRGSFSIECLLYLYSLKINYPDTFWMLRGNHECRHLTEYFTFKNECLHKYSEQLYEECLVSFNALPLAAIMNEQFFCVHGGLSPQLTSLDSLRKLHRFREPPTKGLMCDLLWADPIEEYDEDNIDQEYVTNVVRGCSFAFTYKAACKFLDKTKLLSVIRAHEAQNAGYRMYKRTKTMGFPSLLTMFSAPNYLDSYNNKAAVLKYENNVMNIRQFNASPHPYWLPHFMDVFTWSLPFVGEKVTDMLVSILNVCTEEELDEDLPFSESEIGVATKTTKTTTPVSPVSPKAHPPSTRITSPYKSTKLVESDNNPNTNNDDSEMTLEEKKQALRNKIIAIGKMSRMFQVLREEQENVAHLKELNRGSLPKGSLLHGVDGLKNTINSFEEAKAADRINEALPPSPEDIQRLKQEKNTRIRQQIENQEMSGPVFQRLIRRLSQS

[24] = target: ATP-dependent molecular chaperone HSP82 (Candida albicans (strain WO-1) (Yeast), UniProt C4YTQ8); test: steroid-induced GRE reporter decrease in yeast – S. cerevisiae, luminescence, Hsp90 inhibitor project, dose response (AID 2400); type: functional, cell-based;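 note: beta-galactosidase luminescence from glucocorticoid response element reporter as proxy for Hsp90 function; inhibitor potency where signal loss means Hsp90 inhibition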
Sequence of ATP-dependent molecular chaperone HSP82 (C4YTQ8 whole entry): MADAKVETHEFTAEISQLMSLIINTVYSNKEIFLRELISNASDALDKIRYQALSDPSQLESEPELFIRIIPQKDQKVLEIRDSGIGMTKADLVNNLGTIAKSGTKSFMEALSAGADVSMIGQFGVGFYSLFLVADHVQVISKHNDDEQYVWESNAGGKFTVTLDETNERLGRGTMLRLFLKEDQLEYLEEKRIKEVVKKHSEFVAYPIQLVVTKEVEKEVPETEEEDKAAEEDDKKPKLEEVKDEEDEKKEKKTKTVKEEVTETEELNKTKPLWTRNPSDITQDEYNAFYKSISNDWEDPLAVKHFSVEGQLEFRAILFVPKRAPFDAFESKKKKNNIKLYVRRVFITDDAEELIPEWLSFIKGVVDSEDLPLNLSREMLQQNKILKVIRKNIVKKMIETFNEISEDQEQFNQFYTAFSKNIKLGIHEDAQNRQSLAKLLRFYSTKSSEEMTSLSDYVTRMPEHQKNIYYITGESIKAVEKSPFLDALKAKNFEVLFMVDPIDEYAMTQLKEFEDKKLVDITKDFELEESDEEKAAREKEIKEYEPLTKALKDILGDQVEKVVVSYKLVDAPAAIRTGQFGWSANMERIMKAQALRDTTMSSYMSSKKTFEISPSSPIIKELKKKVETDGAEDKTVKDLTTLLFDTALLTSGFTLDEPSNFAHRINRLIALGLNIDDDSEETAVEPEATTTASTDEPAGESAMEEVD

COc1ccc2c(c1OC)C(=O)N1c3ccccc3COC21 (configuration not stated)
AC50 (HeLa): > 350 µM (inactive) | IC50 [1]: > 47.1 µM (inactive) | EC50 [2]: > 53 µM (inactive)

COc1ccc(NC(=O)c2ccc3[nH]c(C)c(C)c3c2)cc1
AC50 (HeLa): 47.9 µM (active)

CCOc1ccc(-[n+]2c(-c3ccc(OC)cc3)cn3c2CCCCC3)cc1
EC50 [3]: > 150 µM (inactive) | EC50 [4]: 0.48 µM (active) | IC50 (Jurkat [5]): > 80 µM (inactive) | IC50 [6]: > 80 µM (inactive) | AC50 [7]: 2.13 µM (active) | AC50 (A-375): 48 µM (active) | AC50 (INS1): 0.312 µM (active)

COC(=O)C[n+]1cccc2ccccc21
IC50 [8]: 2.81 µM (active) | AC50 (ORF 73): 6.51 µM (active) | IC50 [9]: 4.46 µM (active) | AC50 [10]: 35.7 µM (active) | AC50 (Keap1/Nrf2): 20.8 µM (active)

O=C1NC(=O)/C(=C\c2ccc(O)cc2O)S1
IC50 [11]: 2.2 µM (active) | AC50 [12]: 1.78 µM (active) | AC50 [13]: 0.56 µM (active) | AC50 [14]: 2.07 µM (active)

CCOc1ccc(-c2nc(CSCC(=O)NCc3ccco3)c(C)o2)cc1
EC50 (HEK293 [15]): 15.4 µM (not active) | EC50 [16]: > 8 µM (not active) | EC50 (HEK293 [17]): 20.3 µM (inactive) | IC50 [18]: > 80 µM (inactive) | AC50 (HEK293 [19]): 32 µM (active) | IC50 (HEK293 [20]; Homo sapiens, HEK293): 54.4 µM (inactive) | IC50 (HEK293 [20]; hek293): 53.1 µM (inactive) | IC50 (Jurkat [21]): > 79 µM (inactive) | IC50 (HEK293 [22]): 25.2 µM (inactive)

CCN(CC)C(=O)CCc1nc(-c2ccc(C(C)(C)C)cc2)no1
IC50 (HEK293 [20]; Homo sapiens, HEK293): 54.7 µM (inactive) | IC50 (HEK293 [20]; hek293): 51.5 µM (inactive) | IC50 (Jurkat [21]): 47.8 µM (inactive) | IC50 (HEK293 [22]): 19.7 µM (active)

CCCCCCc1c(C)nc(-n2[nH]c(C)c(CCO)c2=O)[nH]c1=O
EC50 [3]: > 160 µM (inactive) | EC50 [4]: 0.635 µM (active) | EC50 [23]: > 180 µM (inactive) | EC50 [24]: > 160 µM (inactive)
